Test results from US20230407243A1, “GENETIC PLATFORM TO INVESTIGATE THE FUNCTIONS OF BACTERIAL DRUG EFFLUX PUMPS” (priority 2022, published 2023).
Like-named read-outs stand apart in the source and are kept apart here.

What was measured:
Assay type in all cases: cell-based, Escherichia coli
wild-type (WT) K-12-Pore = assay: microbe, parasite or virus in culture; settings: Escherichia coli, technical duplicate
Summary of the method: (§1)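 E. coli strains carrying a genomically integrated constitutive fhuA ΔC/Δ4L pore were grown 18 h in LB at 37 °C, then diluted 1/2000 in MHB II from OD600 ~1.0. Compounds were tested in duplicate, 2-fold serial titration, for 18 h at 37 °C with shaking. MIC came from OD600 with the pre-incubation background subtracted.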

ΔtolC-Pore = assay: microbe, parasite or virus in culture
Summary of the method: as §1

EKO-35 araC::emrAB = assay: MIC susceptibility profiling, efflux platform
Summary of the method: (§2)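 OD600 read-out, background-corrected, after 18 h at 37 °C with shaking. Compounds were tested in duplicate as 2-fold series in MHB II, with DMSO as solvent control. Inoculum was a 1/2000 dilution of an OD600 ~1.0 PBS suspension.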

EKO-35 araC::acrBD408A = assay: MIC susceptibility profiling, efflux platform
Summary of the method: as §2

EKO-35 araC::mdtEF = assay: MIC susceptibility profiling, efflux platform
Summary of the method: as §2

EKO-35 araC::acrEF = assay: MIC susceptibility profiling, efflux platform
Summary of the method: as §2

EKO-35 araC::macAB = assay: MIC susceptibility profiling, efflux platform
Summary of the method: as §2

EKO-35 araC::emrKY = assay: MIC susceptibility profiling, efflux platform
Summary of the method: as §2

EKO-35 araC::emrKY Pore = assay: MIC susceptibility profiling, porinated efflux platform
Summary of the method: as §1

EKO-35 araC::mexCD Pore = assay: as above
Summary of the method: as §1

EKO-35 araC::mdtEF Pore = assay: as above
Summary of the method: as §1

EKO-35 araC::mdtBC Pore = assay: as above
Summary of the method: as §1

EKO-35 araC::acrD Pore = assay: as above
Summary of the method: as §1

EKO-35 araC::acrB Pore = assay: as above; settings: EKO-35 araC::acr-B Pore compared to EKO-35-Pore
Summary of the method: as §1

[1] = test system: EKO-35 araC::acrBD408A Pore; assay: as above
Summary of the method: as §1

EKO-35 araC::macAB Pore = assay: as above
Summary of the method: as §1

EKO-35 araC::acrEF Pore = assay: as above
Summary of the method: as §1

EKO-35 araC::emrAB Pore = assay: as above
Summary of the method: as §1

## CC(=O)O[C@H]1C[C@@]2(C)[C@@H](C[C@@H](O)[C@H]3[C@@]4(C)CC[C@@H](O)[C@@H](C)[C@@H]4CC[C@@]32C)/C1=C(\CCC=C(C)C)C(=O)O [fusidic acid]
wild-type (WT) K-12-Pore; Table 10, with pore, read-out: Minimum inhibitory concentration (MIC), Pore K-12
  MIC: 100 µg/mL
wild-type (WT) K-12-Pore; Table 14A, porinated, read-out: Minimum inhibitory concentration, K-12 (WT)-Pore
  MIC: 100 µg/mL
ΔtolC-Pore; Escherichia coli, 18 h, read-out: Minimum inhibitory concentration, ΔtolC-Pore
  MIC: 0.391 µg/mL
ΔtolC-Pore; Table 10, with pore, technical duplicate
  Minimum inhibitory concentration (MIC), Pore ΔtolC: 0.391 µg/mL
EKO-35 araC::emrAB; EKO-35 araC::emrAB compared to EKO-35
  Fold change of MICs: 2 fold
EKO-35 araC::emrAB; Escherichia coli, Table 13B, non-porinated, technical duplicate, read-out: Minimum Inhibitory Concentration, EKO-35 araC::emrAB
  MIC: 6.25 µg/mL
EKO-35 araC::acrBD408A; EKO-35 araC::acrBD408A compared to EKO-35
  Fold change of MICs: 1 fold
EKO-35 araC::acrBD408A; Escherichia coli, Table 13B, non-porinated, technical duplicate, read-out: Minimum Inhibitory Concentration, EKO-35 araC::acrBD408A
  MIC: 3.12 µg/mL
EKO-35 araC::mdtEF; EKO-35 araC::mdtEF compared to EKO-35
  Fold change of MICs: 16 fold
EKO-35 araC::mdtEF; Escherichia coli, Table 13A, non-porinated, technical duplicate, read-out: Minimum Inhibitory Concentration, EKO-35 araC::mdtEF
  MIC: 50 µg/mL
EKO-35 araC::acrEF; EKO-35 araC::acrEF compared to EKO-35
  Fold change of MICs: 16 fold
EKO-35 araC::acrEF; Escherichia coli, Table 13A, non-porinated, technical duplicate, read-out: Minimum Inhibitory Concentration, EKO-35 araC::acrEF
  MIC: 50 µg/mL
EKO-35 araC::macAB; EKO-35 araC::macAB compared to EKO-35
  Fold change of MICs: 1 fold
EKO-35 araC::macAB; Escherichia coli, Table 13B, non-porinated, technical duplicate, read-out: Minimum Inhibitory Concentration, EKO-35 araC::macAB
  MIC: 3.12 µg/mL
EKO-35 araC::emrKY; EKO-35 araC::emrKY compared to EKO-35
  Fold change of MICs: 1 fold
EKO-35 araC::emrKY; Escherichia coli, Table 13B, non-porinated, technical duplicate, read-out: Minimum Inhibitory Concentration, EKO-35 araC::emrKY
  MIC: 3.12 µg/mL
EKO-35 araC::emrKY Pore; EKO-35 araC::emrKY Pore compared to EKO-35-Pore
  Fold changes of MICs: 1 fold
EKO-35 araC::emrKY Pore; Escherichia coli, EKO-35 araC::emrKY Pore, technical duplicate, read-out: Minimum inhibitory concentration
  MIC: 0.391 µg/mL
EKO-35 araC::mexCD Pore; EKO-35 araC::mexCD Pore compared to EKO-35-Pore
  Fold changes of MICs: 4 fold
EKO-35 araC::mexCD Pore; Escherichia coli, EKO-35 araC::mexCD Pore, technical duplicate, read-out: Minimum inhibitory concentration
  MIC: 1.56 µg/mL
EKO-35 araC::mdtEF Pore; EKO-35 araC::mdtEF Pore compared to EKO-35-Pore
  Fold changes of MICs: 8 fold
EKO-35 araC::mdtEF Pore; Escherichia coli, Table 14A, porinated, technical duplicate, read-out: Minimum inhibitory concentration, EKO-35 araC::mdtEF Pore
  MIC: 3.12 µg/mL
EKO-35 araC::mdtBC Pore; EKO-35 araC::mdtBC Pore compared to EKO-35-Pore
  Fold changes of MICs: 1 fold
EKO-35 araC::mdtBC Pore; Escherichia coli, EKO-35 araC::mdtBC Pore, technical duplicate, read-out: Minimum inhibitory concentration
  MIC: 0.391 µg/mL
EKO-35 araC::acrD Pore; EKO-35 araC::acrD Pore compared to EKO-35-Pore
  Fold changes of MICs: 32 fold
EKO-35 araC::acrD Pore; Escherichia coli, Table 14A, porinated, technical duplicate, read-out: Minimum inhibitory concentration, EKO-35 araC::acrD Pore
  MIC: 12.5 µg/mL
EKO-35 araC::acrB Pore
  Fold changes of MICs: 256 fold
[1]; EKO-35 araC::acrBD408A Pore compared to EKO-35-Pore
  Fold changes of MICs: 1 fold
[1]; Escherichia coli, EKO-35 araC::acrBD408A Pore, technical duplicate, read-out: Minimum inhibitory concentration
  MIC: 0.391 µg/mL
EKO-35 araC::macAB Pore; EKO-35 araC::macAB Pore compared to EKO-35-Pore
  Fold changes of MICs: 1 fold
EKO-35 araC::macAB Pore; Escherichia coli, EKO-35 araC::macAB Pore, technical duplicate, read-out: Minimum inhibitory concentration
  MIC: 0.391 µg/mL
EKO-35 araC::acrEF Pore; EKO-35 araC::acrEF Pore compared to EKO-35-Pore
  Fold changes of MICs: 32 fold
EKO-35 araC::acrEF Pore; Escherichia coli, Table 14A, porinated, technical duplicate, read-out: Minimum inhibitory concentration, EKO-35 araC::acrEF Pore
  MIC: 12.5 µg/mL
EKO-35 araC::emrAB Pore; EKO-35 araC::emrAB Pore compared to EKO-35-Pore
  Fold changes of MICs: 4 fold
EKO-35 araC::emrAB Pore; EmrAB, porinated strain
  efflux pump-mediated resistance vs EKO-35-Pore: associated with resistance
EKO-35 araC::emrAB Pore; Escherichia coli, EKO-35 araC::emrAB Pore, technical duplicate, read-out: Minimum inhibitory concentration
  MIC: 1.56 µg/mL
